According to publication PMC5706701, “Development of a homogenous high-throughput assay for inositol hexakisphosphate kinase 1 activity” (PLoS ONE, 2017):
Where a name gives a salt, the structure may show the parent alone. Read-outs that look alike come from different tables or passages of the source.

Target: T1, Human IP6K1 (Homo sapiens, UniProt Q92551)
T1 construct: GST (N, cleaved yes); made in house; host or cells: C43 E. coli, pGEX-6P-2
Assay: IP6K1 high-throughput screen of the Sigma LOPAC (ADP-Glo Max, single point);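 also: final compound concentration 10µM in 5% DMSO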
Format: biochemical

[1] = LOPAC single-point screen, ADP-Glo Max luminescence raw signal per well
[2] = LOPAC single-point screen, Z-score relative to plate average and StDev
[3] = LOPAC single-point screen, ADP-Glo Max raw signal per well
[4] = LOPAC single-point screen, Z-score against plate average and StDev
[5] = Sigma LOPAC single-point screen, ADP-Glo Max raw signal per well
[6] = Sigma LOPAC single-point screen, Z-score from plate average and StDev
[7] = LOPAC single-point screen, Z-score from raw signal with plate average and StDev
[8] = LOPAC single-point screen, Z-score from plate average and StDev

T1 sequence (Q92551 whole entry): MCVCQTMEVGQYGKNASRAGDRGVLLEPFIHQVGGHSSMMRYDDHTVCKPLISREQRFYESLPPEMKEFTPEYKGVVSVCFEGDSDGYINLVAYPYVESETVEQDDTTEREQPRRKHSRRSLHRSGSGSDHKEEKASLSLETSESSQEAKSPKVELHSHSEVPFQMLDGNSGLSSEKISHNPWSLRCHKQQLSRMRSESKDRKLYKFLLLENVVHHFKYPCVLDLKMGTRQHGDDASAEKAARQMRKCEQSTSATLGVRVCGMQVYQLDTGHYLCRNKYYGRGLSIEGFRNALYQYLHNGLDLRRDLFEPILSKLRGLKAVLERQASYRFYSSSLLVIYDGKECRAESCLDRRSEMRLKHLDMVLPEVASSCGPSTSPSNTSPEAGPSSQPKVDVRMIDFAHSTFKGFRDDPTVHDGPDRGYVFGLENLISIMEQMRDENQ

NCCS(=O)(=O)O [Taurine]
Raw Signal [1]: 52621
Z-score [2]: -0.6611

CNC(=C[N+](=O)[O-])NCCSCc1ccc(CN(C)C)o1 [Ranitidine hydrochloride]
Raw Signal [3]: 57122
Z-score [4]: 0.2134

C[C@@]1(C2CCCC2)Cc2cc(OCC(=O)O)c(Cl)c(Cl)c2C1=O [R(+)-IAA-94]
Raw Signal [1]: 46670
Z-score [2]: -1.298

N#C/C(=C\c1c[nH]c2ccccc12)C(=O)c1ccc(O)c(O)c1 [Tyrphostin AG 808]
Raw Signal [3]: 55945
Z-score [4]: -0.01531

CCN(CC)CCOC(=O)c1ccc(N)cc1 [Procaine hydrochloride]
Raw Signal [5]: 61379
Z-score [6]: 1.04

Brc1c(NC2=NCCN2)ccc2nccnc12 [UK 14,304]
Raw Signal: 53944
Z-score: -0.4041

NC(=O)c1cc(N2CC2)c([N+](=O)[O-])cc1[N+](=O)[O-] [CB 1954]
Raw Signal [3]: 55279
Z-score [7]: -0.4639

Cn1cc(C(=O)OCC2CCN(CCNS(C)(=O)=O)CC2)c2ccccc21 [GR 113808]
Raw Signal [3]: 56278
Z-score [7]: -0.288

CN1CCCC1c1cccnc1.Cc1ccc(C(=O)OC(C(=O)O)C(OC(=O)c2ccc(C)cc2)C(=O)O)cc1 (stereo not drawn) [(+)-Nicotine (+)-di-p-toluoyl tartrate]
Raw Signal: 52925
Z-score: -0.2467

O=C(O)[C@@H]1CCN1 [L-azetidine-2-carboxylic acid]
Raw Signal [1]: 54831
Z-score [2]: -0.5428

CCC(=O)c1ccc2c(c1)N(CCCN(C)C)c1ccccc1S2 [Propionylpromazine hydrochloride]
Raw Signal [3]: 56049
Z-score [4]: 0.004895

O=C(CCc1ccc(O)cc1)c1c(O)cc(O)cc1O [Phloretin]
Raw Signal [5]: 58655
Z-score [6]: 0.5112

CCCn1c(=O)c2[nH]c(C3CCCC3)nc2n(CCC)c1=O [8-Cyclopentyl-1,3-dipropylxanthine]
Raw Signal [3]: 55782
Z-score [4]: 0.1249

CC/C(=C(\c1ccccc1)c1ccc(OCCN(C)C)cc1)c1ccccc1 [Tamoxifen citrate]
Raw Signal [5]: 60879
Z-score [6]: 0.9433

CC(C)NC[C@H](O)COc1cccc2ccccc12 [(S)-Propranolol hydrochloride]
Raw Signal [5]: 59687
Z-score [6]: 0.7117

O=C(O)c1ccccc1Nc1cccc(OCc2ccc3ccccc3n2)c1 [SR 2640]
Raw Signal [1]: 52929
Z-score [2]: -0.6013

CC[C@H](CO)Nc1nc(NCc2ccccc2)c2ncn(C(C)C)c2n1 [Roscovitine]
Raw Signal [3]: 54754
Z-score [7]: -0.2467

CCn1cc(C(=O)[O-])c(=O)c2ccc(C)nc21.[Na+] [Nalidixic acid sodium]
Raw Signal [1]: 49665
Z-score [2]: -0.7945

Oc1c2ccccc2c2c3c(cccc13)N=N2 [SP600125]
Raw Signal [5]: 57057
Z-score [6]: 0.3838

Cl.O=c1cc(N2CCOCC2)oc2c(-c3ccccc3)cccc12 [LY-294,002 hydrochloride]
Raw Signal [1]: 50825
Z-score [2]: -0.5996

O=C(O)C=Cc1c[nH]cn1 [4-Imidazoleacrylic acid]
Raw Signal [3]: 54766
Z-score [7]: -0.2444

COc1ccc2c(c1O)-c1cccc3c1[C@@H](C2)N(C)CC3.Cl [R(-)-Apocodeine hydrochloride]
Raw Signal [1]: 50869
Z-score [2]: -0.8729

CCSC(=N)Nc1ccc(C(F)(F)F)cc1.Cl [TFPI hydrochloride]
Raw Signal [3]: 53926
Z-score [7]: -0.4076

CCN(CC)CCCCCCCCOC(=O)c1cc(OC)c(OC)c(OC)c1.Cl [TMB-8 hydrochloride]
Raw Signal [3]: 59541
Z-score [4]: 0.2867

OCc1ccc(-c2nn(Cc3ccccc3)c3ccccc23)o1 [YC-1]
Raw Signal [3]: 55059
Z-score [7]: -0.1874

C[N+](C)(C)CCO.[Br-] [Choline bromide]
Raw Signal: 58990
Z-score: 0.1897

Cl.O=C(O)C1=CCCN(CCON=C(c2ccccc2)c2ccccc2)C1 [NO-711 hydrochloride]
Raw Signal [5]: 58704
Z-score [6]: 0.7243

O=C1NCN(c2ccccc2)C12CCN(CC1COc3ccccc3O1)CC2 (stereo not shown) [Spiroxatrine]
Raw Signal [3]: 55965
Z-score [4]: -0.01142

CCCCC/C=C\C/C=C\C/C=C\C/C=C\CCCC(=O)NCC(=O)O [N-arachidonylglycine]
Raw Signal [3]: 55672
Z-score [7]: -0.3947

OCC1OC(n2cnc3ccccc32)C(O)C1O [D-ribofuranosylbenzimidazole]
Raw Signal [1]: 49673
Z-score [2]: -1.116

COc1nc(C)nc(Cl)c1NC1=NCCN1.Cl [Moxonidine hydrochloride]
Raw Signal [3]: 52362
Z-score [7]: -0.3413

O=c1c2ccccc2[nH]c(=S)n1CCN1CCC(=C(c2ccc(F)cc2)c2ccc(F)cc2)CC1 [Diacylglycerol Kinase Inhibitor II]
Raw Signal [3]: 55319
Z-score [4]: 0.03086

CC(C)[C@H]1CN[C@H](C(=O)O)[C@H]1CC(=O)O [Dihydrokainic acid]
Raw Signal [3]: 53229
Z-score [7]: -0.3936

CCCCNC(=O)NS(=O)(=O)c1ccc(C)cc1 [Tolbutamide]
Raw Signal [1]: 65444
Z-score [8]: 1.83

Cc1c2ccncc2c(C)c2c1[nH]c1ccccc12 [Ellipticine]
Raw Signal [1]: 50782
Z-score [2]: -0.8906

NC(CP(=O)(O)O)C(=O)O (racemic) [(±)-2-Amino-3-phosphonopropionic acid]
Raw Signal [1]: 53469
Z-score [2]: -0.7827

CC(C)[N+]1(C)[C@@H]2CC[C@H]1C[C@@H](OC(=O)C(CO)c1ccccc1)C2 (stereo partly shown) [Ipratropium bromide]
Raw Signal [5]: 56944
Z-score [6]: 0.3609

C[C@]12CC[C@H](O)CC1=CC[C@@H]1[C@@H]2CC[C@]2(C)C(=O)CC[C@@H]12 [trans-Dehydroandrosterone]
Raw Signal [3]: 53982
Z-score [7]: -0.2407

COc1ccc2c(c1)c(CC(=O)N1CCOCC1)c(C)n2C(=O)c1ccc(Cl)cc1 [Indomethacin morpholinylamide]
Raw Signal [3]: 52785
Z-score [7]: -0.2703

CCCN(CC1CC1)c1nc(C)nc(Nc2c(Cl)cc(Cl)cc2Cl)c1Cl [NBI 27914]
Raw Signal [1]: 52610
Z-score [2]: -0.5193

CN(C)CC[C@@H](c1ccc(Br)cc1)c1ccccn1 [(+)-Brompheniramine maleate]
Raw Signal [1]: 67936
Z-score [8]: 1.765

O=C1C(SCCO)=C(SCCO)C(=O)c2ccccc21 [NSC 95397]
Raw Signal [3]: 55516
Z-score [4]: 0.07087

Cl.Cl.c1ccc(CCCN2CCN(CCOC(c3ccccc3)c3ccccc3)CC2)cc1 [GBR-12935 dihydrochloride]
Raw Signal [1]: 62907
Z-score [8]: 1.572

CC[C@@]1(O)C(=O)OCc2c1cc1n(c2=O)Cc2cc3ccccc3nc2-1 [(S)-(+)-Camptothecin]
Raw Signal [5]: 58626
Z-score [6]: 0.7025

Cl.NCC#Cc1ccccc1 [3-Phenylpropargylamine hydrochloride]
Raw Signal [1]: 53264
Z-score [2]: -0.5362

O=c1nc2[nH]c3ccccc3nc-2c(=O)[nH]1 [Alloxazine]
Raw Signal [3]: 56241
Z-score [7]: -0.2945

C[C@@H]1O[C@@H](O[C@H]2C[C@@H](O)[C@]3(CO)[C@H]4[C@H](O)C[C@]5(C)[C@@H]([C@@H]6COC(=O)C6)CC[C@]5(O)[C@@H]4CC[C@]3(O)C2)[C@H](O)[C@H](O)[C@H]1O [Dihydroouabain]
Raw Signal [1]: 48437
Z-score [2]: -1.3668

Oc1ccc(Cn2cc[nH]c2=S)cc1 [1-(4-Hydroxybenzyl)imidazole-2-thiol]
Raw Signal [1]: 52381
Z-score [2]: -0.5658

CS(=O)(=O)Nc1ccc([N+](=O)[O-])cc1Oc1ccccc1 [Nimesulide]
Raw Signal [3]: 51877
Z-score [7]: -0.4228

NC(=O)C1=CN([C@@H]2O[C@H](COP(=O)([O-])OP(=O)([O-])OC[C@H]3O[C@@H](n4cnc5c(N)ncnc54)[C@H](OP(=O)([O-])[O-])[C@@H]3O)[C@@H](O)[C@H]2O)C=CC1.[Na+].[Na+].[Na+].[Na+] [NADPH tetrasodium]
Raw Signal [5]: 57869
Z-score [6]: 0.584

CC(C)NCC(O)COc1cccc2ccccc12.Cl (racemic) [(±)-Propranolol hydrochloride]
Raw Signal [3]: 53827
Z-score [7]: -0.09519

c1ccc(C2CN3CCSC3=N2)cc1 (stereo not shown) [Tetramisole hydrochloride]
Raw Signal [1]: 64300
Z-score [8]: 1.608

O=C1NC(c2cccc([N+](=O)[O-])c2)=CCN1c1ccccc1O [Icilin]
Raw Signal [1]: 49844
Z-score [2]: -1.081

N=C(N)NC(=O)c1nc(Cl)c(N)nc1N [Amiloride hydrochloride]
Raw Signal [5]: 63890
Z-score [6]: 1.0527

C1CCc2nnnn2CC1 [Pentylenetetrazole]
Raw Signal [5]: 57450
Z-score [6]: 0.5136

Cn1cc(C2=C(c3ccc(Cl)cc3Cl)C(=O)NC2=O)c2ccccc21 [SB 216763]
Raw Signal [5]: 56670
Z-score [6]: 0.3825

N[C@@H](Cc1c[nH]c2ccccc12)C(=O)O [L-Tryptophan]
Raw Signal [5]: 60593
Z-score [6]: 0.8877

C=C(C)[C@H]1CC=C(C(=O)O)CC1 [(-)-Perillic acid]
Raw Signal [5]: 58838
Z-score [6]: 0.5467

C[C@H](Cc1ccccc1)Nc1ncnc2c1ncn2[C@@H]1O[C@H](CO)[C@@H](O)[C@H]1O [R(-)-N6-(2-Phenylisopropyl)adenosine]
Raw Signal [5]: 58463
Z-score [6]: 0.6838

CC(=O)[C@H]1CC[C@H]2[C@@H]3CCC4=CC(=O)CC[C@]4(C)[C@H]3CC[C@]12C [Progesterone]
Raw Signal [3]: 53663
Z-score [7]: -0.1227

CCCCC[C@H](CC(=O)NO)C(=O)N[C@H](C(=O)N1CCC[C@H]1CO)C(C)C [Actinonin]
Raw Signal [5]: 64769
Z-score [6]: 1.208

NNc1nncc2ccccc12 [Hydralazine hydrochloride]
Raw Signal [3]: 53853
Z-score [7]: -0.2669
